Reference: article PMC6920806, “Synthesis of β-D-galactopyranoside-Presenting Glycoclusters, Investigation of Their Interactions with Pseudomonas aeruginosa Lectin A (PA-IL) and Evaluation of Their Anti-Adhesion Potential” (Biomolecules, 2019)

Test system: adhesion of P. aeruginosa (ST 1763) to epithelial bronchial cells (CuFi-1)
Experiment: Ex vivo bacterial adherence assay, combination with compound 14
Format: cell-based, Pseudomonas aeruginosa
Conditions: 2 mM of the compound with compound 14 (250 μM); relative to untreated control
Procedure: Epithelial CuFi-1 cells (an immortalized epithelial cell line derived from cystic fibrosis human lungs, ATCC, Kielpin, Poland) were labelled with PKH67 (Fluorescent Cell Linker Kit, Sigma-Aldrich, St. Louis, MO, USA), a green fluorescent membrane marker, as follows. An aliquot of cell suspension containing 7 × 10^6 cells was washed with PBS buffer and centrifuged (100× g for 5 min). The cell pellet was resuspended in 250 µL of Diluent C (Fluorescent Cell Linker Kit, Sigma-Aldrich, St. Louis, MO, USA). Immediately, an equal volume of 8 µM PKH67 in Diluent C (2 µL of PKH67 in 248 µL of Diluent C) was added to the cell suspension. […]
Epithelial cells CuFi-1 stained with PKH67 were seeded at 8.4 × 10^4 cells/well onto 96-well plates (CellBIND® 96-well Flat Clear Bottom Black Polystyrene Microplates, Corning Incorporated, Corning, NY, USA) and incubated for 42–45 h at 37 °C, 5% CO2 to form a confluent monolayer and regenerate. […] The fluorescence of adhered P. aeruginosa cells (Ex 522 nm, Em 569 nm for PKH26) on epithelial cells (Ex 470 nm, Em 505 for PKH67) was quantified using the spectrofluorometer Tecan Infinite M200 Pro (Tecan Group Ltd., Männedorf, Switzerland). Results were expressed as a relative fluorescence ratio of P. aeruginosa/CuFi-1. […]

Compound | P. aeruginosa adhesion, mixture with compound 14
OC[C@H]1O[C@@H](OCc2cn(CCn3cc(COCC(COCc4cn(CCn5cc(CO[C@@H]6O[C@H](CO)[C@H](O)[C@H](O)[C@H]6O)nn5)nn4)(COCc4cn(CCn5cc(CO[C@@H]6O[C@H](CO)[C@H](O)[C@H](O)[C@H]6O)nn5)nn4)COCc4cn(CCn5cc(CO[C@@H]6O[C@H](CO)[C@H](O)[C@H](O)[C@H]6O)nn5)nn4)nn3)nn2)[C@H](O)[C@@H](O)[C@H]1O [Compound 13] | ~23%
COC(=O)c1cc(OCc2cn(CCn3cc(CO[C@@H]4O[C@H](CO)[C@H](O)[C@H](O)[C@H]4O)nn3)nn2)c(OCc2cn(CCn3cc(CO[C@@H]4O[C@H](CO)[C@H](O)[C@H](O)[C@H]4O)nn3)nn2)c(OCc2cn(CCn3cc(CO[C@@H]4O[C@H](CO)[C@H](O)[C@H](O)[C@H]4O)nn3)nn2)c1 [Compound 10] | approximately 22%
